Assays:
δ-opioid receptor = target: T1, δ-opioid receptor (Rattus norvegicus, UniProt P33533); conditions: read-out: Ki in binding to the δ-opioid receptor
T1 construct: the forebrains are homogenized in Tris buffer in a Teflon®-glass homogenizer; from tissue; host or cells: forebrain of male Wistar rats, particulate (membrane) preparation

[1] = tested on: acetylcholine bromide-induced abdominal constriction response; test: Mouse Acetylcholine Bromide-Induced Abdominal Constriction Assay; type: in vivo; conditions: p.o., 30 minutes before i.p. 5.5 mg/kg acetylcholine bromide, % inhibition of constriction response (% analgesia)
Description: C) Mouse Acetylcholine Bromide-Induced Abdominal Constriction Assay
The mouse acetylcholine-induced abdominal constiction assay, as described by Collier et al. in Brit. J. Pharmacol. Chem. Ther., 32: 295-310, 1968, with minor modifications was used to assess analgesic potency of the compounds of formula (I). The test drugs or appropriate vehicles were administered orally (p.o.) and 30 minutes later the animal received an intraperitoneal (i.p.) injection of 5.5 mg/kg acetylcholine bromide (Matheson, Coleman and Bell, East Rutherford, N.J.). The mice were then placed in groups of three into glass bell jars and observed for a ten minute observation period for the occurrence of an abdominal constriction response (defined as a wave of constriction and elongation passing caudally along the abdominal wall, accompanied by a twisting of the trunk and followed by extension of the hind limbs). The percent inhibition of this response to a nociceptive stimulus (equated to % analgesia) was calculated as follows: The % inhibition of response, i.e., % analgesia is equal to the difference between the No. of control animal responses and the No. of drug-treated animal responses times 100 divided by the No. of control animals responding.

opioid delta receptor = target: T2, opioid delta receptor (Homo sapiens, UniProt P41143); type: binding
T2 construct: purchased Receptor Biology, Baltimore, Md; host or cells: CHO cells (recombinant, membranes)

μ-opioid receptor = μ-opioid receptor (Rattus norvegicus, UniProt P33535); conditions: read-out: Ki in binding to the μ-opioid receptor; rat forebrain preparation, [3H]DAMGO, 25° C.
μ-opioid receptor, sequence (P33535 whole entry): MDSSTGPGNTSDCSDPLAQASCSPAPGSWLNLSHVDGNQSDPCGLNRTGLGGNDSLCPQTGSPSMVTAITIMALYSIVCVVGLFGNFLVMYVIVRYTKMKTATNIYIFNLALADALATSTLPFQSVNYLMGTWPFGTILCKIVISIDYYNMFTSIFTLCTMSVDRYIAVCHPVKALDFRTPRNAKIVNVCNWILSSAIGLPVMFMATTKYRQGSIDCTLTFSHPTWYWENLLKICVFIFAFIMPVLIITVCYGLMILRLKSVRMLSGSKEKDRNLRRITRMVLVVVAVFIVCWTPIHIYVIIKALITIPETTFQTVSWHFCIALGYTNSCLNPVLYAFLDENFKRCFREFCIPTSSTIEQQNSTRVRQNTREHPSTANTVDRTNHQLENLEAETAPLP

T2 sequence (P41143 whole entry): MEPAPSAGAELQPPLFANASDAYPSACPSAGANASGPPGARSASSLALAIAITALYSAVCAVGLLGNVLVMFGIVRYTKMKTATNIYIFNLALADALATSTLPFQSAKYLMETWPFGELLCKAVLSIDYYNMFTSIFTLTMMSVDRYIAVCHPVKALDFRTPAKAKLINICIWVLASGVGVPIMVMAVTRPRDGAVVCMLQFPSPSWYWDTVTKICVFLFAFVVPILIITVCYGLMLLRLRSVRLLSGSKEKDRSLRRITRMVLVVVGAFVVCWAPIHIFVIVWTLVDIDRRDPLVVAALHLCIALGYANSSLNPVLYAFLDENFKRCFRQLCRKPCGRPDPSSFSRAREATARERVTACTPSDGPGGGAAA
T1 sequence (P33533 whole entry): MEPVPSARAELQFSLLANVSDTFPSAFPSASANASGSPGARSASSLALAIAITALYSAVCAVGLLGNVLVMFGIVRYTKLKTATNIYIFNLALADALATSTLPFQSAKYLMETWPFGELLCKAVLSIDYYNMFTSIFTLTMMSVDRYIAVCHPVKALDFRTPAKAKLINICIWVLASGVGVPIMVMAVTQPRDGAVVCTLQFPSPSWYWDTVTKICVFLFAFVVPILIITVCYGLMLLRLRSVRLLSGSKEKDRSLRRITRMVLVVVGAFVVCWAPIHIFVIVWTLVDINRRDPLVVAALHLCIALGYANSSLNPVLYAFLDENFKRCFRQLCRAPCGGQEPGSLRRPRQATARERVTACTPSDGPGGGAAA

## CCCN1CCC(N(c2ccccc2)c2cccc(C(=O)N(C)c3ccccc3)c2)CC1.O=C(O)/C=C/C(=O)O [C4, N-Methyl-N-phenyl-3-[phenyl(1-propylpiperidin-4-yl)amino]benzamide Fumarate[1:1.4]]
δ-opioid receptor
  Ki: 25 nM
[1]
  ED50: 4.2 µmol/kg
Opioid delta receptor
  % I @ 25 μM: 41%
μ-opioid receptor
  Ki: 153 nM

Reference: patent publication US6436959B1 (priority 1998, dated 2002)
